This is an account of results in PMC11945201, “Enhancing the Oral Bioavailability of Glutathione Using Innovative Analogue Approaches” (Pharmaceutics, 2025).

As a reminder, the viability is a read-out of living cells in per cent, often relative to untreated cells. As usually defined, the AUC is concentration integrated over time. Read a low AUC as less exposure. One may read the bioavailability as the share of a dose that reaches the circulation, judged against a reference dose that is usually intravenous. Higher therefore signals good availability.

The subject of data set [1] is γ-glutamyl transferase (GGT). Type of data set: in vitro ADME, equine. The note with it: horse, 100 μgmL^−1, pH 9. On the procedure:
Each compound and GSH (100 μgmL^−1, 0.0315 molL^−1) was added to each reaction vessel containing phosphate buffer solution (800 μL, pH 9.0). The reaction vessels were incubated at 37 °C with shaking for the entire duration of the experiment. Reaction was initiated by the addition of GGT enzyme solution (100 μL, 10 UmL^−1). […] The degradation rate of the novel compounds analysed by HPLC were compared with that of GSH. […] A GGT degradation less than 50% was considered resistance to GTT activity.

A short description of data set [2]: UV rescue of UVA-irradiated fibroblast cells (MTT). It is filed as cell-based. The following applies: peptide 0.0325 mmolL^−1, 24 h, no UV, mean ± SD, n = 6, read-out: % Cell Viability (no UV). On the procedure: Fibroblast cells were seeded into 96-well plates at a density of 10,000 cells per well determined by cell counting. Cells were allowed to settle and attach for 24 h before the addition of peptides. The supernatant in each well was discarded, and the attached cells were washed using serum-free DMEM twice. One group of cells was exposed to UVA under a UV lamp for 1 h. A second group of cells was not exposed to UV irradiation. The supernatant was removed from each well of both groups and replaced with peptide (100 μL, 0.0325 mmolL^−1), which was then dissolved in Fluorobite^TM DMEM. Each plate, including 2 wells of both groups was also incubated with serum-free DMEM (positive control) and 2% Triton-X (negative control) for 24 h. The supernatant in each well of both groups was then discarded and the cells washed using PBS. MTT (100 μL, 6 mmolL^−1) that was dissolved in HBSS was then added to each well and incubated for 2 h for MTT conversion into formazan. The supernatant was then discarded, and the cells were washed using PBS to remove any residual MTT and formazan that were not attached to the cellular mitochondria. Formazan was dissolved in DMSO (50 μL), and the absorbance was measured on a microplate reader at a wavelength of 570 nm.

Data set [3] is described as follows: Pharmacokinetic study after IV injection or oral gavage. Type of data set: in vivo, male Sprague Dawley rat. The following applies: for AUC / bioavailability / half-life: male, plasma; for AUC / bioavailability: Sprague-Dawley; for AUC / half-life: 75 mg per rat; for AUC: AUC0-48, mean ± SD, n = 4; for bioavailability: rat, po, 75 mg; for half-life: read-out: plasma t½. Here is the method:
Pharmacokinetic studies were conducted using a male Sprague Dawley rat model. […] The animal experiments were performed in China, complying with the guide for care and use of laboratory animals. […] The collected blood samples were centrifuged at 7104× g for 5 min, and the plasma was stored at -70 °C until analysis. The plasma protein was precipitated by the addition of 1 mL of ACN, which was then vortexed for 1 min and centrifuged at 30,065× g for 15 min. […] The 1.70 concentration for each group (oral/IV) was determined using a modified LC-MS method adapted from the GSH protocol. Briefly, blood samples containing 1.70 were analysed separately by positive mode LC-MS using an Agilent 1100 series HPLC (Agilent Technology, Inc., Santa Clara, CA, USA) coupled with an Agilent 6530 Accurate Mass Q-TOF LC/MS (Agilent Technology, Inc., Santa Clara, CA, USA), which was equipped with a dual jet stream electrospray ionisation source. Chromatographic separation was achieved on a Zorbax SB C18 column (5 μm, 3 × 150 mm) maintained at 40 °C. […] The flow rate was set at 0.5 mL/min with an injection volume of 8 μL. Mass spectrometer settings were configured for m/z transitions of 319.1→215.2, with a fragmentor voltage of 180 V. The instrument parameters were as follows: a gas flow of 10 L/min, a gas temperature of 275 °C, a sheath gas flow of 12 L/min, a sheath gas temperature of 300 °C, a nebuliser pressure of 40 psi, a capillary voltage of 3000 V, and a nozzle voltage of 500 V. This method was developed and validated through triplicate linearity studies at concentrations ranging from 30 to 5000 ng/mL according to the International Conference on Harmonization (ICH) guidelines. Data were acquired and analysed using Agilent Mass Hunter Software (version A.02.17).

The conditions of data set [4]: cited from earlier work.
In data set [5] the test system is γ-glutamyl transferase (GGT). Description: in vitro. The note with it: horse, γ-glutamyl transferase (GGT) solution. On the procedure:
(§1) To investigate the GSH degradation against common enzymes of the GI tract, the degradation of GSH in the presence of pepsin, chymotrypsin, trypsin, aminopeptidase, GGT, jejunum luminal content, and mucosal homogenates obtained from the rats’ intestines were investigated. GSH (100 μgmL^−1) was incubated at 37 °C with the above enzymes or mixtures for 24 h. The sample was withdrawn at the time intervals of 0, 1, 10, 30, 60, 120, 240, 480, and 1440 min, which were then mixed with equal volume of ice-cold HCl (0.2 molL^−1) until analysis by HPLC. Enzymatic degradation was repeated until three results within <5% SD were obtained.

The next data set deals with trypsin (Bos taurus, UniProt P00760). Description: in vitro. The note with it: bovine, trypsin solution. On the procedure: as §1
For another data set, the target named is chymotrypsin (Bos taurus, UniProt P00766). Description: in vitro. The following applies: bovine, chymotrypsin solution. On the procedure:
as §1

The nature of a further data set: in vitro. The following applies: rat. On the procedure:
as §1

For a further data set, the system named is aminopeptidase. Description: in vitro. The note with it: aminopeptidase solution. Here is the method: as §1
The target of another data set is pepsin (Bos taurus, UniProt P00792). Description: in vitro. The note with it: bovine, pepsin solution. Here is the method:
as §1

A further data set in a line: physchem. On the procedure:
To investigate the potential peptide degradation during storage and when in a cell culture medium, the stability of GSH in NaOH (0.1 molL^−1, pH 13.0), HBSS (pH 7.4), and HCl (0.1 molL^−1, pH 1.0) were investigated. GSH (100 μgmL^−1) was incubated at 37 °C with the above conditions for 24 h or until at least 20% of peptide was degraded. The samples were withdrawn at the time intervals 0, 1, 10, 30, 60, 120, 240, 480, and 1440 min and mixed with equal volume of ice-cold HCl (0.2 molL^−1) until analysis by HPLC. Stability was repeated until three results within <5% SD were obtained.

The conditions of data set [6]: background statement in abstract, ref not given; cited from earlier work.

Values after ≈ are worked out from the molar mass of the structure shown.

Sequence of trypsin (P00760 24-246): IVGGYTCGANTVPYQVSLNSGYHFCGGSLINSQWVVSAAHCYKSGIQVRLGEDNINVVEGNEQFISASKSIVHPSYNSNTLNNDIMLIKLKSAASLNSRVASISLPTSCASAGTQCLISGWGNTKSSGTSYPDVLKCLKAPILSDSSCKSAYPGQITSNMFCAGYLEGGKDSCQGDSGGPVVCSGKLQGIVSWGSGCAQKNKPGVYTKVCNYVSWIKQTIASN
Sequence of pepsin (P00792 43-372): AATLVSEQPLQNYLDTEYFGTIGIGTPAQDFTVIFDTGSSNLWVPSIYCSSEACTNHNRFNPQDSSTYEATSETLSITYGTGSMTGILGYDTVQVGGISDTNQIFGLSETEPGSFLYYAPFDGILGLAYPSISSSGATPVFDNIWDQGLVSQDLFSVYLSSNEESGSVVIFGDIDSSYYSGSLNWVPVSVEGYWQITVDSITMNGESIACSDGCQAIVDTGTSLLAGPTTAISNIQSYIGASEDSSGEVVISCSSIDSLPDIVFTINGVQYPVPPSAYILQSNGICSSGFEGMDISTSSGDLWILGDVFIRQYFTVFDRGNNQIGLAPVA

Regarding `CN(C(=O)CC[C@H](N)C(=O)O)[C@@H](CS)C(=O)NCC(=O)O` [Compound 1.70], the “% Degradation by GGT” value in data set [1] came out at 11.7%. Further, the viability at 24 h, 0.0325 mmolL^−1 in [2] was 108 ± 9.4%. Further, in data set [3] (Sprague Dawley rats), the “fold increase in oral bioavailability compared to native GSH” value is recorded as 16.1 fold, the “fold increase in plasma t½ compared to native GSH” value was determined as 16.8 fold and the half-life stood at 0.56 h. The AUC in [3] (IV) was determined as 727 ± 42 ng·h/mL. Further, the AUC in data set [3] (oral) was determined as 82 ± 8 ng·h/mL. This compound also returned a bioavailability in data set [3] of 11.3 ± 1.2%.
Take `N[C@@H](CCC(=O)N[C@@H](CS)C(=O)NCC(=O)O)C(=O)O` [GSH, Glutathione]: in [4], the water solubility is reported as 292.5 mg/mL (≈ 952 mM). Also, the half-life at 100 μgmL^−1 is 0.7 ± 0.03 h in [5]; 5.8 ± 0.3 h at trypsin; 4.6 ± 0.2 h at chymotrypsin; 30.5 ± 1.5 h in “in vitro” (jejunum luminal contents); 9.4 ± 2 h in the data set “in vitro” (jejunum mucosal homogenates); 18.9 ± 0.9 h in the data set with aminopeptidase. Further, the half-life at 100 μgmL^−1 at pepsin is 31.4 ± 1.6 h; in the data set “physchem” (HBSS buffer, pH 7.4), 46.3 ± 2.3 h; in “physchem” (aqueous HCl solution, pH 2), 203 ± 10.1 h; in the data set “physchem” (aqueous NaOH solution, pH 12) it was 2.5 ± 0.1 h. Moreover, the results for the AUC in data set [3] (IV) and in [3] (oral) were 5350 ± 2480 ng·h/mL and 36 ± 8 ng·h/mL, respectively. The compound also had a bioavailability in data set [3] of 0.7 ± 0.1%. Further, the half-life in [3] (Sprague Dawley rats) came out at 0.0333 h. In addition, the oral bioavailability entry in data set [6] is reported as “below 1%”.
